Legend:
Assay in all cases: Post-emergence greenhouse pot test, herbicide alone and with safener
Assay type in all cases: in vivo
Agrostis spica-venti = conditions: 10 days after application
Experimental: (§1) The test plants are grown in pots under greenhouse conditions until a post-application stage. A standard soil is used as the cultivation substrate. At a post-emergence stage, the herbicides, both alone and in admixture with safeners, are applied to the test plants or to cultivated plants of which the seeds were dressed with safeners. Application is carried out using an emulsion prepared from a 25% emulsifiable concentrate (Example F1, b)) of the test substances using 500 l of water/ha. The rates of application are matched to the optimum dosages determined under field or greenhouse conditions. Evaluation of the tests is carried out after 9, 10, 20 and 24 days (100% action=complete destruction; 0% action=no phytotoxic action).

Alopecurus myosuroides = conditions: 10 days after application
Experimental: as §1

Lolium rigidum = test system: Lolium rigidum
Experimental: as §1

hard wheat = test system: hard wheat
Experimental: as §1

summer wheat = test system: summer wheat
Experimental: as §1

winter barley = conditions: 10 days after application
Experimental: as §1

winter wheat = conditions: 10 days after application
Experimental: as §1

[1] = 20 days after application, herbicide alone 60 g a.i./ha
[2] = 20 days after application, herbicide alone 125 g a.i./ha
[3] = 20 days after application, herbicide alone 250 g a.i./ha
[4] = 9 days after application, herbicide alone 60 g a.i./ha
[5] = 9 days after application, herbicide alone 125 g a.i./ha
[6] = 9 days after application, herbicide alone 250 g a.i./ha

With CCc1cc(C)cc(CC)c1C1C(=O)N2CCOCCN2C1=O [herbicide no. I1, 8-(2,6-diethyl-4-methylphenyl)tetrahydropyrazolo[1,2-d][1,4,5]-oxadiazepine-7,9-dione] the “action (100% = complete destruction; 0% = no phytotoxic action)” value (Agrostis spica-venti; herbicide alone 15 g a.i./ha) was 70%, the “action (100% = complete destruction; 0% = no phytotoxic action)” value (Agrostis spica-venti; herbicide alone 30 g a.i./ha) was 70% and the “action (100% = complete destruction; 0% = no phytotoxic action)” value (Agrostis spica-venti; herbicide alone 60 g a.i./ha) was 80%. The “action (100% = complete destruction; 0% = no phytotoxic action)” value (Agrostis spica-venti; herbicide alone 125 g a.i./ha) was 80%, the “action (100% = complete destruction; 0% = no phytotoxic action)” value (Alopecurus myosuroides; herbicide alone 15 g a.i./ha) was 50% and the “action (100% = complete destruction; 0% = no phytotoxic action)” value (Alopecurus myosuroides; herbicide alone 30 g a.i./ha) was 80%. For the same compound, the “action (100% = complete destruction; 0% = no phytotoxic action)” value (Alopecurus myosuroides; herbicide alone 60 g a.i./ha) was 80%, the “action (100% = complete destruction; 0% = no phytotoxic action)” value (Alopecurus myosuroides; herbicide alone 125 g a.i./ha) was 90% and the “action (100% = complete destruction; 0% = no phytotoxic action)” value (Lolium rigidum; 10 days after application, herbicide alone 15 g a.i./ha) was 60%. For the same compound, the “action (100% = complete destruction; 0% = no phytotoxic action)” value (Lolium rigidum; 10 days after application, herbicide alone 30 g a.i./ha) was 60%, the “action (100% = complete destruction; 0% = no phytotoxic action)” value (Lolium rigidum; 10 days after application, herbicide alone 60 g a.i./ha) was 60% and the “action (100% = complete destruction; 0% = no phytotoxic action)” value (Lolium rigidum; 10 days after application, herbicide alone 125 g a.i./ha) was 80%. For the same compound, the “action (100% = complete destruction; 0% = no phytotoxic action)” value (Lolium rigidum; [1]) was 95%, the “action (100% = complete destruction; 0% = no phytotoxic action)” value (Lolium rigidum; [2]) was 100% and the “action (100% = complete destruction; 0% = no phytotoxic action)” value (Lolium rigidum; [3]) was 100%. The “action (100% = complete destruction; 0% = no phytotoxic action)” value (hard wheat; [4]) was 55%, the “action (100% = complete destruction; 0% = no phytotoxic action)” value (hard wheat; [5]) was 60% and the “action (100% = complete destruction; 0% = no phytotoxic action)” value (hard wheat; [6]) was 60%. For the same compound, the “action (100% = complete destruction; 0% = no phytotoxic action)” value (hard wheat; [1]) was 20%, the “action (100% = complete destruction; 0% = no phytotoxic action)” value (hard wheat; [2]) was 30% and the “action (100% = complete destruction; 0% = no phytotoxic action)” value (hard wheat; [3]) was 45%. The “action (100% = complete destruction; 0% = no phytotoxic action)” value (summer wheat; [4]) was 60%, the “action (100% = complete destruction; 0% = no phytotoxic action)” value (summer wheat; [5]) was 60% and the “action (100% = complete destruction; 0% = no phytotoxic action)” value (summer wheat; [6]) was 60%. For the same compound, the “action (100% = complete destruction; 0% = no phytotoxic action)” value (summer wheat; [1]) was 20%, the “action (100% = complete destruction; 0% = no phytotoxic action)” value (summer wheat; [2]) was 40% and the “action (100% = complete destruction; 0% = no phytotoxic action)” value (summer wheat; [3]) was 50%. For the same compound, the “action (100% = complete destruction; 0% = no phytotoxic action)” value (winter barley; herbicide alone 15 g a.i./ha) was 0%, the “action (100% = complete destruction; 0% = no phytotoxic action)” value (winter barley; herbicide alone 30 g a.i./ha) was 0% and the “action (100% = complete destruction; 0% = no phytotoxic action)” value (winter barley; herbicide alone 60 g a.i./ha) was 0%. For the same compound, the “action (100% = complete destruction; 0% = no phytotoxic action)” value (winter barley; herbicide alone 125 g a.i./ha) was 0%, the “action (100% = complete destruction; 0% = no phytotoxic action)” value (winter wheat; herbicide alone 15 g a.i./ha) was 0% and the “action (100% = complete destruction; 0% = no phytotoxic action)” value (winter wheat; herbicide alone 30 g a.i./ha) was 5%. For the same compound, the “action (100% = complete destruction; 0% = no phytotoxic action)” value (winter wheat; herbicide alone 60 g a.i./ha) was 10% and the “action (100% = complete destruction; 0% = no phytotoxic action)” value (winter wheat; herbicide alone 125 g a.i./ha) was 20%.

Reference: patent publication US6962894B1, “Herbicidal composition” (Syngenta Crop Protection, Inc., priority 1999, dated 2005)
